Earlier results, collected in patent US6191117A, “Methods of producing weight loss and treatment of obesity” (priority 2000, dated 2001).
“Also recorded” adds a separate entry of the source. Where two headings read alike, the source gives them in different places.

Assays:
[1] = tested on: NMDA receptor glycine site
[2] = tested on: NMDA receptor glycine site; settings: bilateral LH injection
[3] = tested on: strychnine-insensitive glycine-binding site
[4] = tested on: PFH (perifornical hypothalamus)
[5] = tested on: PVN (paraventricular nucleus)
lateral hypothalamus [6] = settings: injection into lateral hypothalamus
seizure patients = settings: monotherapy
lateral hypothalamus [7] = settings: rats previously given intrahypothalamic injections
NMDA receptors [8] = settings: in vivo
NMDA receptors [9] = tested on: NMDA receptors
[10] = injection into LH bilaterally for 8 days

## O=C(O)c1cc(O)c2ccc(Cl)cc2n1 [7-CK, 7-chlorokynurenic acid]
[1]; 7-CK 0.1 nmol
  AMPA-elicited eating: suppressed feeding elicited by KA or AMPA; also recorded: virtually blocking it
  KA-elicited eating: suppressed feeding elicited by KA or AMPA; also recorded: suppressed KA-elicited eating
  NMDA-elicited eating: enhanced NMDA-elicited eating
[1]; 7-CK 10 nmol
  AMPA-elicited eating: suppressed eating elicited by AMPA
  KA-elicited eating: enhancing eating elicited by KA; also recorded: markedly enhanced the KA-elicited response
  NMDA-elicited eating: blocked NMDA-elicited eating
[1]; LH injection before NMDA, satiated rats, dose not stated (high doses)
  NMDA-elicited eating: blocked
[2]
  eating produced by fasting: effectively suppressed eating produced by fasting
[3]; into intracerebral ventricles or paraventricular nucleus
  food intake: dose-dependently increased food intake

## CNC[C@H](O)c1ccc(O)c(O)c1 [epinephrine]
[4]
  effect on eating in PFH: feeding-suppressive effects

## NCCCC(=O)O [γ-aminobutyric acid]
[5]
  effect on eating in PVN: feeding-stimulatory effects

## N[C@@H](CCC(=O)O)C(=O)O [glutamate]
Lateral hypothalamus [6]
  eating response on LH injection: elicit a strong dose-dependent eating response; also recorded: elicited eating in satiated rats
[5]
  effect on eating in PVN: relatively ineffective
[5]; PVN injections
  autonomic and endocrine effects (PVN injection): can produce autonomic and endocrine effects
[4]
  effect on eating in PFH: relatively ineffective
[4]; PFH injections
  autonomic and endocrine effects (PFH injection): can produce autonomic and endocrine effects

## NC[C@H](O)c1ccc(O)c(O)c1 [norepinephrine]
[5]
  effect on eating in PVN: feeding-stimulatory effects

## NC(=O)N1c2ccccc2C=Cc2ccccc21 [carbamazepine]
Seizure patients
  weight gain as monotherapy: associated with weight gain

## Nc1nnc(-c2cccc(Cl)c2Cl)c(N)n1 [LTG]
Sodium channel
  action on sodium channel: blocking the sodium channel
100 mg and 200 mg, adjunctive therapy and monotherapy
  anorexia and nausea incidence: 6-15%
12 months or up to 144 weeks
  effect on body weight: no significant effect on body weight

## C=C(C)[C@H]1CN[C@H](C(=O)O)[C@H]1CC(=O)O [KA, Kainic acid]
Lateral hypothalamus [6]
  eating response on LH injection: elicit a strong dose-dependent eating response; also recorded: elicited eating in a dose-dependent fashion; also recorded: trigger intense eating
Lateral hypothalamus [6]; listed as kainic acid
  eating response on LH injection: quantitatively similar eating responses
Lateral hypothalamus [7]
  feeding and drinking: impaired

## NCC(=O)O [glycine]
[1]; LH pretreatment
  block by 7-CK of NMDA-elicited eating, after LH pretreatment with glycine: reversed this block

## CCCC(CCC)C(=O)O [valproate]
Seizure patients
  weight gain as monotherapy: associated with weight gain

## NCCc1ccc(O)c(O)c1 [dopamine]
[4]
  effect on eating in PFH: feeding-suppressive effects

## N[C@H](CO)C(=O)O [D-serine]
[3]; rat, in vivo
  7CK induced feeding: dose-dependently antagonized 7CK induced feeding

## Cc1onc(O)c1CC(N)C(=O)O (racemic) [AMPA, D,L-α-amino-3-hydroxy-5-methyl-isoxazole proprionic acid]
Lateral hypothalamus [6]
  eating response on LH injection: elicit a strong dose-dependent eating response; also recorded: elicited eating in a dose-dependent fashion; also recorded: trigger intense eating; also recorded: quantitatively similar eating responses

## N[C@H](CCCP(=O)(O)O)C(=O)O [D-AP5]
NMDA receptors [8]
  eating responses elicited by AMPA: without affecting
  eating responses elicited by kainic acid: without affecting
  reduction of the 10-gram eating response elicited by NMDA: 72-90%
NMDA receptors [9]; in vivo
  suppression of deprivation-induced eating responses: ≤ 61%
  suppression of nocturnal eating: ≤ 40%
NMDA receptors [9]; [10]
  body weight loss: up to 13 grams/day
  reduction in daily food intake: 65%

## neuropeptide Y
[4]
  effect on eating in PFH: feeding-stimulatory effects
